This is an account of results in patent US10047051B2, “Substituted pyridines and method of use” (AbbVie S.á{acute over (.)}r.l., priority 2015, dated 2018).

Molecules are shown by their SMILES. Bounds are passed on as bounds.

What is called EC50 is the concentration that produces a half-maximal response. A higher EC50 goes with a need for much substance.

The target in test [1] is T1, CFTR ΔF508 mutant (Homo sapiens, UniProt P13569, DEL508-508).
T1 construct: expressed in transfected cells; host or cells: CFBE41o- cells, adenoviral transduction
Kind of test: YFP-halide influx assay for the CFTR-ΔF508 mutation (CFBE41o- cells). It is filed as cell-based. As to conditions: forskolin 10.67 μM; for EC50: from (1−F/F0) vs concentration plot. In short, it runs like this: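 EC50 derived from plotting 1−F/F0 (fluorescence 36 s after iodide injection over pre-injection value) against compound concentration. Cells: CFBE41o- transduced with ΔF508-CFTR and YFP quench reporter, corrected 24 h at 27° C or by a CFTR modulator at 37° C.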

Test [2] deals with T2, CFTR G551D mutant (Homo sapiens, UniProt P13569, G551D).
T2 construct: expressed in transfected cells; host or cells: HEK293 cells, reverse transfection with plasmids
Kind of test: YFP-halide influx assay for the CFTR-G551D mutation (HEK293 cells). It is filed as cell-based. As to conditions: forskolin 10.67 μM. The essentials:
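Channel opening read as I⁻-driven quenching of a YFP H148Q/I152L/F47L reporter over 7 s post-injection, expressed as 1−F/F0 and fitted against concentration for EC50. Cells were HEK293 co-transfected at seeding with G551D CFTR plus reporter, then grown 24 h at 37 °C, 5% CO2.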

T1 sequence (P13569 with tags, fused parts or gaps DEL508-508): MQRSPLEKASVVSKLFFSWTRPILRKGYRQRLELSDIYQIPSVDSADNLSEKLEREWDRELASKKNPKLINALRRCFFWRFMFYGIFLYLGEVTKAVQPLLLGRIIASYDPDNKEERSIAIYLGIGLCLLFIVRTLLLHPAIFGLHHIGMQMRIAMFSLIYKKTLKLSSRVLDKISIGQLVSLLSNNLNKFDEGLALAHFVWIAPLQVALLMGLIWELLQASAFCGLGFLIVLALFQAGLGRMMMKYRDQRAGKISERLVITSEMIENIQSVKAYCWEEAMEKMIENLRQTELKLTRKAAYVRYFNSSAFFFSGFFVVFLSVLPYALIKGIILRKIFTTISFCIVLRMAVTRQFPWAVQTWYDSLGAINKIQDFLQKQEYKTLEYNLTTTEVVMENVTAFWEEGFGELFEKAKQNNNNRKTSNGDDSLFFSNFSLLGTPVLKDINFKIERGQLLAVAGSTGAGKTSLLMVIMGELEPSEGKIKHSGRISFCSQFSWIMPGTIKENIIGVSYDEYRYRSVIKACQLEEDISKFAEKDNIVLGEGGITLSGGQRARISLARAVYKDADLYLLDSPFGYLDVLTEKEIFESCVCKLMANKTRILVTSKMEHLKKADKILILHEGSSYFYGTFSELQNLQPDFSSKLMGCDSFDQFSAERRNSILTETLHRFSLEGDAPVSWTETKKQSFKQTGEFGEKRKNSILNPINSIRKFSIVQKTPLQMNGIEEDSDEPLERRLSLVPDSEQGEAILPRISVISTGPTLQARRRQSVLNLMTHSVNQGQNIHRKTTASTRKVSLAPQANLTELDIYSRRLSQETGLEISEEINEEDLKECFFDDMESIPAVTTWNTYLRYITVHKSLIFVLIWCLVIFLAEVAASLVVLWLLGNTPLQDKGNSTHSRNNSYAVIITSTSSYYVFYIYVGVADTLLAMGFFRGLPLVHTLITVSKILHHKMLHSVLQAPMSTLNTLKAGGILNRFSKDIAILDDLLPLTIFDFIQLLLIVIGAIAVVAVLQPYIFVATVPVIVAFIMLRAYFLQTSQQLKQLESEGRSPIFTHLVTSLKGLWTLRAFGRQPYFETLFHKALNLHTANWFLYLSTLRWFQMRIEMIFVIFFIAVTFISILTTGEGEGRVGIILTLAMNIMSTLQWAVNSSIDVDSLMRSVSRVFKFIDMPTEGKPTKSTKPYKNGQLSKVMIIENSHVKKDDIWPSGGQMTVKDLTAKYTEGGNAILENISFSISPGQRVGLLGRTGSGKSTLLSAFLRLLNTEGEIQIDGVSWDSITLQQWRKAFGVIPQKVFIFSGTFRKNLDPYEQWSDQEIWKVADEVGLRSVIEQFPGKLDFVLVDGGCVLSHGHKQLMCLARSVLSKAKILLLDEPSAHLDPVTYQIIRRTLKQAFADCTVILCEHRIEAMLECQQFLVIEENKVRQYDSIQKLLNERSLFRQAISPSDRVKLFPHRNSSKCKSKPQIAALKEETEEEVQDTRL
T2 sequence (P13569 whole entry G551D): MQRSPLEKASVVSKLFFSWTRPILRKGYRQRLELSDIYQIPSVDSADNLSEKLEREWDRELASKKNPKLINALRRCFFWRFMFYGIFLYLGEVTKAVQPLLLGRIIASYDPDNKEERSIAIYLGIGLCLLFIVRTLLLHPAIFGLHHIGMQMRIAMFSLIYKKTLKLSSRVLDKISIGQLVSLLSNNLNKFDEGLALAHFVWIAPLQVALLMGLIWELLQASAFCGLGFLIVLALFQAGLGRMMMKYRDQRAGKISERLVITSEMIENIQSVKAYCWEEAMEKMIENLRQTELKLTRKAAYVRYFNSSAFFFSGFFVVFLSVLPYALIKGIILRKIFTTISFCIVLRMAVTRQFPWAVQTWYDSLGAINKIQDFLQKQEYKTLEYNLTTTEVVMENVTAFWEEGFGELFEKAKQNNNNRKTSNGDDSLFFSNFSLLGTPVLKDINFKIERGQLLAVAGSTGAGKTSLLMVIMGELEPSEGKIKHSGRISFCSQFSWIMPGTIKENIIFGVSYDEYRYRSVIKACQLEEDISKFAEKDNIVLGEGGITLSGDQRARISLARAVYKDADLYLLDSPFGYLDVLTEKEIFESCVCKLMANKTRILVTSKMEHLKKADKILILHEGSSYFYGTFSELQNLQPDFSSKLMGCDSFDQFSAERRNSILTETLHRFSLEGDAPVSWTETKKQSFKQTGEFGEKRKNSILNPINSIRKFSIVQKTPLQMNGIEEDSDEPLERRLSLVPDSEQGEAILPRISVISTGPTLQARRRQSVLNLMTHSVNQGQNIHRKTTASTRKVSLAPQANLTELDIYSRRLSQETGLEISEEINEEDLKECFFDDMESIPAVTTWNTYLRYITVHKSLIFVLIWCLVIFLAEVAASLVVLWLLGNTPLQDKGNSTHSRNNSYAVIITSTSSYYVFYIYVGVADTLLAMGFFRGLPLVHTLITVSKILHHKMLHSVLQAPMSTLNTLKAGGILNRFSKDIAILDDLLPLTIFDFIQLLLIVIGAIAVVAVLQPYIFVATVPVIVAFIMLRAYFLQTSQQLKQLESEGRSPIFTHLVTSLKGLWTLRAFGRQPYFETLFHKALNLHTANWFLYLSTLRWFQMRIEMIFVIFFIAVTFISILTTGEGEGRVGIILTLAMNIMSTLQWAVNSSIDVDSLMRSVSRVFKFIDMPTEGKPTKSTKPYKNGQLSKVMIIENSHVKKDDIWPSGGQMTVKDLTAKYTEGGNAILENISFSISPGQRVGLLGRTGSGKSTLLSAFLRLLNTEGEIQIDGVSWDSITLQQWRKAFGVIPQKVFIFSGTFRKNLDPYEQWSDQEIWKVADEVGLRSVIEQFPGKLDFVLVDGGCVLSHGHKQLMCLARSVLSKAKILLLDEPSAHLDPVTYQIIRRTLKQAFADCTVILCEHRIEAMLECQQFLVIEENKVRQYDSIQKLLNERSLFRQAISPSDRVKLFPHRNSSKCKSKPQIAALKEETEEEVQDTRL

In the case of `Nc1cc(S(=O)(=O)c2ccc(C(F)(F)F)cc2)cnc1C(=O)N[C@@H]1COCC[C@@H]1O` [Compound 235, 3-amino-N-[(3R,4S)-4-hydroxytetrahydro-2H-pyran-3-yl]-5-{[4-(trifluoromethyl)phenyl]sulfonyl}pyridine-2-carboxamide], in test [1], the “% Activation” value worked out at 58.5% and the EC50 is over 667 nM. Also, the “% Activation” value in test [2] is on record as 14.4%.

On to `Nc1cc(S(=O)(=O)c2ccc(C(F)(F)F)cc2F)cnc1C(=O)NCCO` [Compound 219, 3-amino-5-{[2-fluoro-4-(trifluoromethyl)phenyl]sulfonyl}-N-(2-hydroxyethyl)pyridine-2-carboxamide], for which, in test [1], the “% Activation” value is recorded as 99.8% and the midpoint of the response, the EC50, lay at 19.2 nM. Besides, in test [2], the “% Activation” value came out at 44.7% and the EC50 was 1050 nM.

Regarding `C[C@H](O)CNC(=O)c1ncc(S(=O)(=O)N2CCCC2CO)cc1N` (mixture of isomers) [Compound 268, 3-amino-5-{[2-(hydroxymethyl)pyrrolidin-1-yl]sulfonyl}-N-[(2S)-2-hydroxypropyl]pyridine-2-carboxamide], the “% Activation” value in test [1] was 37.1%; in test [2], 0.3%. This compound also returned an EC50 in test [1] of over 667 nM.

With `CN1CCC(O)(CNC(=O)c2ncc(S(=O)(=O)c3ccc(OC(F)(F)F)cc3)cc2N)CC1` [Compound 5, 3-amino-N-[(4-hydroxy-1-methylpiperidin-4-yl)methyl]-5-{[4-(trifluoromethoxy)phenyl]sulfonyl}pyridine-2-carboxamide], the results for the “% Activation” value in test [1] and in test [2] were 14.8% and 1.7%, respectively. Besides, the EC50 was over 2000 nM in test [1] and over 10000 nM in test [2].

For `CC1(O)CN(C(=O)c2ncc(S(=O)(=O)c3ccc(OC(F)(F)F)cc3)cc2N)C1` [Compound 89, (3-amino-5-{[4-(trifluoromethoxy)phenyl]sulfonyl}pyridin-2-yl)(3-hydroxy-3-methylazetidin-1-yl)methanone], in test [1], the “% Activation” value stood at 99.6% and the EC50 came out at 6.9 nM. Further, in test [2], the “% Activation” value is given as 53.6% and the EC50 is over 3330 nM.

Consider `CC(C)c1ccc(S(=O)(=O)c2cnc(C(=O)NCC(O)C(F)(F)F)c(N)c2)cc1` (stereo not shown) [Compound 246, 3-amino-5-{[4-(propan-2-yl)phenyl]sulfonyl}-N-(3,3,3-trifluoro-2-hydroxypropyl)pyridine-2-carboxamide], for which the “% Activation” value is given as 118.0% in test [1] and 106.0% in test [2]. Also, the values for the EC50 in test [1] and in test [2] were 3.9 nM and 391 nM, respectively.

With `CO[C@H]1C[C@H](NC(=O)c2ncc(S(=O)(=O)c3ccc(OC(F)(F)F)cc3)cc2N)C1` [Compound 120, 3-amino-N-(trans-3-methoxycyclobutyl)-5-{[4-(trifluoromethoxy)phenyl]sulfonyl}pyridine-2-carboxamide], the “% Activation” value in test [1] is 96.5%; in test [2] it was 54.0%. Also, the EC50 in test [1] came out at 76.8 nM; in test [2], 1110 nM.

Turning to `Nc1cc(S(=O)(=O)c2ccc(OC(F)(F)F)cc2)cnc1C(=O)NC1(C(F)(F)F)COC1` [Compound 214, 3-amino-5-{[4-(trifluoromethoxy)phenyl]sulfonyl}-N-[3-(trifluoromethyl)oxetan-3-yl]pyridine-2-carboxamide], in test [1], the “% Activation” value was 60.5% and the EC50 was over 667 nM. In addition, in test [2], the “% Activation” value is 39.1% and the EC50 was over 10000 nM.

For the compound `Nc1cc(S(=O)(=O)c2ccc(C(F)(F)F)cc2F)cnc1C(=O)N1CC(OC(F)F)C1` [Compound 161, (3-amino-5-{[2-fluoro-4-(trifluoromethyl)phenyl]sulfonyl}pyridin-2-yl)[3-(difluoromethoxy)azetidin-1-yl]methanone], in test [1], the “% Activation” value is reported as 97.3% and a half-maximal effect (EC50) was put at 21.5 nM. In test [2], the “% Activation” value is on record as 45.8% and the EC50 is 681 nM.

`Nc1cc(S(=O)(=O)c2ccc(C(F)(F)F)cc2)cnc1C(=O)NC1(CO)CC1` [Compound 292, 3-amino-N-[1-(hydroxymethyl)cyclopropyl]-5-{[4-(trifluoromethyl)phenyl]sulfonyl}pyridine-2-carboxamide]: the figures for the “% Activation” value in test [1] and in test [2] were 72.4% and 28.5%, respectively. The EC50 was 263 nM in test [1] and over 10000 nM in test [2].

Regarding `Nc1cc(S(=O)(=O)c2ccc(C(F)(F)F)cc2F)cnc1C(=O)NC[C@@H](O)C(F)(F)F` [Compound 107, 3-amino-5-{[2-fluoro-4-(trifluoromethyl)phenyl]sulfonyl}-N-[(2R)-3,3,3-trifluoro-2-hydroxypropyl]pyridine-2-carboxamide], in test [1], the “% Activation” value is listed as 103.0% and the EC50 is 1.5 nM. In addition, in test [2], the “% Activation” value was 81.7% and the EC50 is 164 nM.

`Nc1cc(S(=O)(=O)c2ccc(OC(F)(F)F)cc2F)cnc1C(=O)N1CC(F)(F)C1` [Compound 172, (3-amino-5-{[2-fluoro-4-(trifluoromethoxy)phenyl]sulfonyl}pyridin-2-yl)(3,3-difluoroazetidin-1-yl)methanone]: in test [1], the “% Activation” value worked out at 95.9% and the EC50 turned out to be 13.4 nM. In test [2], the “% Activation” value is 62.4% and the EC50 came out at 864 nM.

Consider `CN(Cc1ccc(F)cc1F)S(=O)(=O)c1cnc(C(=O)NCC(O)C(F)(F)F)c(N)c1` (stereo not shown) [Compound 137, 3-amino-5-[(2,4-difluorobenzyl)(methyl)sulfamoyl]-N-(3,3,3-trifluoro-2-hydroxypropyl)pyridine-2-carboxamide], for which, in test [1], the “% Activation” value is listed as 110.7% and the EC50 was determined as 3.7 nM. In addition, in test [2], the “% Activation” value was 69.6% and the EC50 was found to be 420 nM.

Take `CN1CC[C@H](NC(=O)c2ncc(S(=O)(=O)c3ccc(OC(F)(F)F)cc3)cc2N)C1` [Compound 207, 3-amino-N-[(3S)-1-methylpyrrolidin-3-yl]-5-{[4-(trifluoromethoxy)phenyl]sulfonyl}pyridine-2-carboxamide]: in test [1], the “% Activation” value amounted to 78.0% and the EC50 is over 667 nM. In addition, in test [2], the “% Activation” value is reported as 15.0% and the EC50 is over 10000 nM.

`Nc1cc(S(=O)(=O)N2CCC(OC(F)(F)F)CC2)cnc1C(=O)NCC(O)C(F)(F)F` (stereo not shown) [Compound 198, 3-amino-N-(3,3,3-trifluoro-2-hydroxypropyl)-5-{[4-(trifluoromethoxy)piperidin-1-yl]sulfonyl}pyridine-2-carboxamide]: in test [1], the “% Activation” value is 107.0% and a half-maximal effect (EC50) was put at 7.8 nM. In test [2], the “% Activation” value was 75.2% and the EC50 was 756 nM.

As to `Nc1cc(S(=O)(=O)c2ccc(C(F)(F)F)cc2F)cnc1C(=O)N[C@@H]1COCC[C@@H]1O` (racemic) [Compound 218, rac-3-amino-5-{[2-fluoro-4-(trifluoromethyl)phenyl]sulfonyl}-N-[(3R,4S)-4-hydroxytetrahydro-2H-pyran-3-yl]pyridine-2-carboxamide], in test [1], the “% Activation” value came to 105.8% and the EC50 was 44.4 nM. For the same compound, in test [2], the “% Activation” value was 43.8% and the EC50 turned out to be 1520 nM.

Consider `Nc1cc(S(=O)(=O)c2ccc(OC(F)(F)F)cc2)cnc1C(=O)NCC1CCCOC1` (stereo not shown) [Compound 143, 3-amino-N-(tetrahydro-2H-pyran-3-ylmethyl)-5-{[4-(trifluoromethoxy)phenyl]sulfonyl}pyridine-2-carboxamide], for which, in test [1], the “% Activation” value is recorded as 91.4% and the EC50 amounted to 136 nM. In test [2], the “% Activation” value is given as 80.6% and it took 2300 nM to reach a half-maximal effect (EC50).

Turning to `CC(C)OCCNC(=O)c1ncc(S(=O)(=O)c2ccc(C(F)(F)F)cc2)cc1N` [Compound 192, 3-amino-N-[2-(propan-2-yloxy)ethyl]-5-{[4-(trifluoromethyl)phenyl]sulfonyl}pyridine-2-carboxamide], in test [1], the “% Activation” value came out at 101.5% and the EC50 was found to be 38.8 nM. Besides, in test [2], the “% Activation” value came to 58.4% and a half-maximal effect (EC50) was put at 868 nM.

Turning to `CC[C@@H](CO)NC(=O)c1ncc(S(=O)(=O)c2ccc(OC(F)(F)F)cc2)cc1N` [Compound 142, 3-amino-N-[(2S)-1-hydroxybutan-2-yl]-5-{[4-(trifluoromethoxy)phenyl]sulfonyl}pyridine-2-carboxamide], in test [1], the “% Activation” value is listed as 97.9% and the 50% effective concentration (EC50) was 11.9 nM. For the same compound, in test [2], the “% Activation” value is on record as 44.7% and it took 399 nM to reach a half-maximal effect (EC50).

As to `Nc1cc(S(=O)(=O)c2ccc(C(F)(F)F)cc2)cnc1C(=O)NC[C@H]1CCOC1` [Compound 101, 3-amino-N-[(3R)-tetrahydrofuran-3-ylmethyl]-5-{[4-(trifluoromethyl)phenyl]sulfonyl}pyridine-2-carboxamide], in test [1], the “% Activation” value is reported as 106.5% and a half-maximal effect (EC50) was put at 64.2 nM. For the same compound, in test [2], the “% Activation” value is recorded as 71.2% and the half-maximal effective concentration (EC50) was found to be 1580 nM.

As for `Nc1cc(S(=O)(=O)c2ccc(C(F)(F)F)cc2F)cnc1C(=O)N1CC(F)(F)C1` [Compound 164, (3-amino-5-{[2-fluoro-4-(trifluoromethyl)phenyl]sulfonyl}pyridin-2-yl)(3,3-difluoroazetidin-1-yl)methanone], in test [1], the “% Activation” value was 102.0% and the EC50 is 8.2 nM. For the same compound, in test [2], the “% Activation” value is given as 71.5% and the EC50 was 683 nM.
